Data as given in article PMC4367813 (Current medicinal chemistry, 2012).
Where two headings read alike, the source gives them in different places. Residues, ends and D or L forms follow the SMILES beside them. *: point of attachment. Cbz = O=C(OCc1ccccc1)*

What was measured:
recombinant PRCP (rPRCP) = biological target: T1, recombinant PRCP (rPRCP) (Homo sapiens, UniProt P42785); test: rPRCP activity, cleavage of chromogenic substrate APpNA; format: biochemical; conditions: 1 mM APpNA, 60 min; NE = no effect
T1 sequence (P42785 46-496): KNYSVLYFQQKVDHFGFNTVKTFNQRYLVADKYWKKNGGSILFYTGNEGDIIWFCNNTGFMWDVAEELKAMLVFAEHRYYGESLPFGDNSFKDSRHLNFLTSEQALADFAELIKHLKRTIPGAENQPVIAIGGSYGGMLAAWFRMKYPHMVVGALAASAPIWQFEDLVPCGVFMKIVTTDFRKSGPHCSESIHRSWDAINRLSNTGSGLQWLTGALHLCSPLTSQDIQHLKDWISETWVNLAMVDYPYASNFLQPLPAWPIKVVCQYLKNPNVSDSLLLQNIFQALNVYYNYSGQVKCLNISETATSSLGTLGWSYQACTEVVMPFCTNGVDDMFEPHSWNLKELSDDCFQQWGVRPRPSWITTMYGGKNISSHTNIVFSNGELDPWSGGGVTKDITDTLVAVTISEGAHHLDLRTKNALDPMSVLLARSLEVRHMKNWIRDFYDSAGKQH

[1] = biological target: PRCP-dependent prekallikrein (PK) activation on HPAEC; test: PRCP-dependent PK activation on HPAEC; format: cell-based, human; conditions: 20 nM HK, 20 nM PK; NE = no effect
PRCP = conditions: read-out: PRCP IC50, cited from earlier work
carboxypeptidase A (CPA) = biological target: T2, carboxypeptidase A (CPA) (Bos taurus, UniProt P00730); test: Specificity: carboxypeptidase A inhibition; format: biochemical
T2 sequence (P00730 111-419): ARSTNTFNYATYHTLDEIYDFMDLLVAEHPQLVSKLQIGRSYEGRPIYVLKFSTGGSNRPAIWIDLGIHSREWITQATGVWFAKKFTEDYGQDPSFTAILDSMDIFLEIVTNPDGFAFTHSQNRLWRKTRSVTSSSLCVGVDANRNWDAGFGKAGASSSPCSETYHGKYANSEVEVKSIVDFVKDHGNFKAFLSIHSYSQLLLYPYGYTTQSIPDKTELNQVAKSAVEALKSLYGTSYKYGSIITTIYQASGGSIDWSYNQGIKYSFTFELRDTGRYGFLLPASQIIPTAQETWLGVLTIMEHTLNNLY

carboxypeptidase M (CPM) = biological target: T3, carboxypeptidase M (CPM) (Homo sapiens, UniProt P14384); test: Specificity: carboxypeptidase M inhibition; format: biochemical; conditions: Table 5, NE = no effect
T3 sequence (P14384 18-443): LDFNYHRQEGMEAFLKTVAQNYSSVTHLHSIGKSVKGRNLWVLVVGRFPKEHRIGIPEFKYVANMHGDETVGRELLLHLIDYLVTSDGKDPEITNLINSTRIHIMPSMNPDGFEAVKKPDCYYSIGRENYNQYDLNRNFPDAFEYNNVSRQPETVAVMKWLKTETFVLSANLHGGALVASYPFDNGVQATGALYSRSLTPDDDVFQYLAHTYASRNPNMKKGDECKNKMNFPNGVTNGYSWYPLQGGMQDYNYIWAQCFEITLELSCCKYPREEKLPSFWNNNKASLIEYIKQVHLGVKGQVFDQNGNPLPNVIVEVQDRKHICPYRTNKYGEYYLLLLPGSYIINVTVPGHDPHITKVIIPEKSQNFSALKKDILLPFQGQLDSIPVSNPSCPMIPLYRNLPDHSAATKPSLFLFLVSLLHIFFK

carboxypeptidase B (CPB) = biological target: T4, carboxypeptidase B (CPB) (Sus scrofa, UniProt P09955); test: Specificity: carboxypeptidase B inhibition; format: biochemical; conditions: Table 5, NE = no effect
T4 sequence (P09955 111-416): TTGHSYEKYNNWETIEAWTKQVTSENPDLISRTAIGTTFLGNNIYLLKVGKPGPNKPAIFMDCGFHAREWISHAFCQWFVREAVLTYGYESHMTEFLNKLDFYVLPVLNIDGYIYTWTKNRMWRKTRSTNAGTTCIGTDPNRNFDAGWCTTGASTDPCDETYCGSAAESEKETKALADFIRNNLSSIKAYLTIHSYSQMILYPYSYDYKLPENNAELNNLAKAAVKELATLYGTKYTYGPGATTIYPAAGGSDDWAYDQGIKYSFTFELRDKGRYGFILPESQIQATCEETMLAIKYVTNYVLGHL

[2] = biological target: T5, carboxypeptidase N (hCPN, partially purified from plasma) (Homo sapiens, UniProt P15169); test: Specificity: carboxypeptidase N inhibition; format: biochemical; conditions: Table 5, NE = no effect
T5 sequence (P15169 21-458): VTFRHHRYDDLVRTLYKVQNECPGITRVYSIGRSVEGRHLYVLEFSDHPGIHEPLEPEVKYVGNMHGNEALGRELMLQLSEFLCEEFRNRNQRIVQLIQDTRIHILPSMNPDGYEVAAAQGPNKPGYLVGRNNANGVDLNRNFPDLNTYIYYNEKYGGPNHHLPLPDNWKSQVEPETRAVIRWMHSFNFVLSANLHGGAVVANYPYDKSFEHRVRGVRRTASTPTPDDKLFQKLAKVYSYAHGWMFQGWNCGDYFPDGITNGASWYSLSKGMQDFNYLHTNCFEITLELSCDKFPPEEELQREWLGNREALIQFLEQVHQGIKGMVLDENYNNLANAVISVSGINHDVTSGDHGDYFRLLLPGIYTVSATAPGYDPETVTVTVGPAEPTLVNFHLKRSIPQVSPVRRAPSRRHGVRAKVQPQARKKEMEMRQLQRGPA
T5 sequence (P22792 22-545 partner): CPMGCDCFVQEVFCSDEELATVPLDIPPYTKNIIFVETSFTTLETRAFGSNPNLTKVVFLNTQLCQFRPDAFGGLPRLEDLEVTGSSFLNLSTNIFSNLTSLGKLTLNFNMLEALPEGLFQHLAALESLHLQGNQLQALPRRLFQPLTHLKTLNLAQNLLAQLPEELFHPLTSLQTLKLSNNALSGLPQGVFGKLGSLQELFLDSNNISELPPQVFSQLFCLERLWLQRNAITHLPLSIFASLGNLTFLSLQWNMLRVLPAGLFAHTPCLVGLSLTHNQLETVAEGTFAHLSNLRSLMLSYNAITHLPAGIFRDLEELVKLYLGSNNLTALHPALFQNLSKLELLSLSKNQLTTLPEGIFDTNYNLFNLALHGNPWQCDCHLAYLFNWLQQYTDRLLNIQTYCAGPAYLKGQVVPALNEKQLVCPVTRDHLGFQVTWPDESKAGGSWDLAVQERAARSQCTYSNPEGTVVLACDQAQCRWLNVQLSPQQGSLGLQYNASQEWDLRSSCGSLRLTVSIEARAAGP

NO formation on HPAEC = test: PRCP-induced nitric oxide formation on HPAEC; format: cell-based, human; conditions: HPAEC with HK/PK complexes, 100 µM
[3] = tested on: PGI2 (6-keto prostaglandin F1α) release from HPAEC; test: PRCP-induced 6-keto prostaglandin F1α release from HPAEC; format: cell-based, human; conditions: HPAEC with HK/PK complexes, 100 µM
food intake in mice = conditions: fasted mice
[4] = mice, Compound 3 (400 µM), within 8 hours of administration

Q: With `O=C[C@@H]1CCCN1C(=O)[C@@H]1CCCN1C(=O)OCc1ccccc1` [z-Pro-Prolinal, 1-[1-(benzyloxycarbonyl)-L-prolyl] prolinal] (Cbz-Pro-Pro-aldehyde) as the compound, how does the “rPRCP Ki” value (recombinant PRCP (rPRCP)) read?
A: little effect

Q: What about the “PRCP-Dependent PK Activation on HPAEC Ki” value [1] of the same compound?
A: little effect

Q: And the IC50 (PRCP; listed as Z-Pro-Pro-OH)?
A: > 2000 µM

Q: For `O=C[C@@H]1CCCN1C(=O)[C@@H]1CCCN1C(=O)OCc1ccccc1` (Cbz-Pro-Pro-aldehyde), which IC50 (PRCP) is on record?
A: > 1000 µM

Q: Which Ki (carboxypeptidase A (CPA)) does the source give for `c1cnc2c(c1)ccc1cccnc12` [1,10-Phenanthroline, 1,10-phenanthroline, reference compound] here?
A: 486 µM

Q: And the Ki (carboxypeptidase M (CPM); Ki CPM)?
A: 394 µM

Q: Which “Ki CPA” value (carboxypeptidase A (CPA); Table 5, NE = no effect) does the source give for `CCCCCCCCCCCCNC(=O)[C@@H]1CCCN1C(=O)[C@@H]1CCCN1` [Compound 3, (S)-N-dodecyl-1-((S)-pyrrolidine-2-carbonyl) pyrrolidine-2-carboxamide] here?
A: not inhibited

Q: What about the Ki (carboxypeptidase A (CPA); read-out: Ki CPA, Table 5, NE = no effect) of the same compound?
A: > 1000 µM

Q: And the “Ki CPB” value (carboxypeptidase B (CPB))?
A: not inhibited

Q: And the Ki (carboxypeptidase B (CPB); read-out: Ki CPB)?
A: > 1000 µM

Q: And the “Ki CPN” value [2]?
A: did not inhibit

Q: And the Ki ([2]; read-out: Ki CPN)?
A: > 1000 µM

Q: And the “Ki CPM” value (carboxypeptidase M (CPM))?
A: did not inhibit

Q: What about the Ki (carboxypeptidase M (CPM); read-out: Ki CPM) of the same compound?
A: > 1000 µM

Q: What about the “reduction of NO production” value (NO formation on HPAEC) of the same compound?
A: 80%

Q: And the “reduction of PGI2 production” value [3]?
A: 80%

Q: And the food intake (food intake in mice; 1 mg/kg ip, 1-24 h)?
A: lower food intake, although the reduction was not significant at 2, 4, 8, or 24 h

Q: What about the food intake (food intake in mice; 10 mg/kg ip, all time intervals 1-24 h, P < 0.05 vs saline) of the same compound?
A: Significant declines in food intake

Q: And the “time at which attenuation of food intake started” value (food intake in mice; ip)?
A: ≤ 1 h

Q: What about the ALB (Metabolic panel; [4]) of the same compound?
A: 3.9

Q: And the ALP (Metabolic panel; [4])?
A: 93

Q: What about the ALT (Metabolic panel; [4]) of the same compound?
A: 33

Q: What about the AMY (Metabolic panel; [4]) of the same compound?
A: 1041

Q: What about the BUN (Metabolic panel; [4]) of the same compound?
A: 19

Q: What about the CRE (Metabolic panel; [4]) of the same compound?
A: 0.3

Q: And the “Ca^2+” value (Metabolic panel; [4])?
A: 9.9

Q: What about the GLOB (Metabolic panel; [4]) of the same compound?
A: 1.5

Q: What about the GLU (Metabolic panel; [4]) of the same compound?
A: 165

Q: And the “K+” value (Metabolic panel; [4])?
A: 5.4

Q: And the “Na+” value (Metabolic panel; [4])?
A: 151

Q: What about the PHOS (Metabolic panel; [4]) of the same compound?
A: 8.0

Q: And the TBIL (Metabolic panel; [4])?
A: 0.4

Q: What about the TP (Metabolic panel; [4]) of the same compound?
A: 5.3

Q: And the “changes in electrolyte levels, or markers of kidney and liver function” value (Metabolic panel; mice, within 8 hours of administration)?
A: did not cause significant changes

Q: And the “decrease in blood glucose levels” value (Metabolic panel; treated mice, n=3, P = 0.26)?
A: 15%
